# Values of other authors, collected in patent US7691903B2, “Oxidation-sensitive hydrophilic active principle containing composition and use thereof” (L'Oreal, priority 2002, dated 2010).
# Details: ascorbic acid derivatives; J. Am. Acad. Dermatol., 1996, 34, 29-33
smiles,measurement,value
O=C1O[C@H]([C@@H](O)CO)C([O-])=C1OP(=O)([O-])[O-].O=C1O[C@H]([C@@H](O)CO)C([O-])=C1OP(=O)([O-])[O-].[Mg+2].[Mg+2].[Mg+2] [magnesium ascorbyl phosphate],bioavailability,very low
